This is an account of results in patent publication US5726325A, “Tricyclic compounds” (Kyowa Hakko Kogyo Co., Ltd., priority 1995, dated 1998).

Some results are limits rather than exact numbers.

Experiment [1] deals with detrusor muscle. Briefly: Test Example 2: relaxation of guinea pig bladder strips, rhythmical contraction induced by 15 mM KCl. The format is cell-based, guinea pig (male albino Hartley). As to conditions: Cavia porcellus, concentration decreasing detrusor contraction by 50%. An excerpt:
(§1) The activity of Compound (I) as a smooth muscle relaxant which is useful as a therapeutic agent for urinary incontinence can be observed, for example, using the following tests. In the following Test Examples 1 and 2, "IC50 " means the concentration of a test compound which induces the decrease in the contraction of detrusor muscle by 50%.
(§2) Male albino Hartley guinea pigs (350-550 g) were used as test animals. Each animal was exsanguinated to death under pentobarbital sodium anesthesia. The lower abdominal cavity was opened and its bladder was positioned. The connective tissue and the fat tissue around the bladder were removed, and the bladder was cleaned. After two pelvic nerves on the surface of the abdominal side of the bladder were dissected, the bladder was taken out on the entrance of ureter. The bladder was washed with a Krebs-Henseleit buffer [composition (mM): NaCl 118, KCl 4.7, MgSO4 1.2, KH2 PO4 1.2, CaCl2 2.5, NaHCO3 25, and D-glucose 11.1], and then put on a gauze patch soaked in the buffer in a Petri dish. The dome and the trigone of the bladder were dissected and discarded. The back of the bladder was cut vertically in the middle with scissors, and the bladder was put flat on the gauze patch. The dome tip and the side of the trigone of the bladder were dissected and discarded, and the mucosa of the bladder was removed. The back of the bladder was cut vertically to get 6 strips which are ca. 2.0 mm wide and ca. 10 mm long.
(§3) One end of each strip was fixed on a plastic supporter rod, and the other end was fixed on a clip connected to a suture thread. The supporter was fixed in 20 ml of an organ bath and the suture thread connected to the clip was fixed on a force-displacement transducer (NIHON KODEN TB-611T). The tissue was suspended in a Krebs-Henseleit buffer, and the bath solution was warmed to 37° C. and bubbled with a gas mixture of 5% CO2 and 95% O2. The pH of the solution was adjusted to about 7.4. The transducer was connected to a polygraph (NIHON KODEN AP-621G), and the change of tension was recorded on a recorder (YOKOGAWA type 3066). The polygraph was graduated by 0.5 g/cm.
The effect of a smooth muscle relaxant varies with the concentration of KCl based on the difference of an action mechanism. In the following Test Example, KCl was used at a concentration different from that in Test Example 1.
A sample of the excised bladder was prepared in the same manner as in Test Example 1, and the tension of the preparation was measured. After the tension of the tissue was adjusted to be a steady state at 1 g, 15 mM KCl was applied. After the rhythmical contraction was confirmed to appear by KCl, the tissue was washed. Then, 15 mM KCl was applied again. After the rhythmical contraction took place constantly and the tissue reached the steady state, a test compound was applied by the cumulative method (half-logarithmic incremence). The contact time at each concentration was 30 minutes. The activity of the compound was expressed as the maximum relaxation rate (%) of the tension induced by the agonist.

The subject of experiment [2] is detrusor muscle. Put plainly: Test Example 1: relaxation of guinea pig bladder strips contracted with 50 mM KCl. As to conditions: Cavia porcellus; contraction induced by 50 mM KCl; concentration decreasing detrusor contraction by 50%. The class given is cell-based, guinea pig (male albino Hartley).
Excerpt: as §1, §2, §3
After the tissue was incubated in the buffer for 15 minutes without preloading, tension was added thereto for about one hour. The preloading tension added was 1.5 g and it was relaxed to about 1 g. The tissue was washed at intervals of 15 minutes and the tension was adjusted to 1.5 g just before washing. The tension of the tissue was adjusted to be a steady state at 1 g. After this equilibrium time, 50 mM KCl (the whole content in the bath) was added, and the tissue was washed 10 minutes later. KCl was added to the tissue at intervals of 30 minutes, followed by washing 10 minutes later, and KCl was applied repeatedly until the developed tension induced by KCl becomes constant. When the tissue was confirmed to contract constantly by the application of KCl and relax to the steady state after washing, 50 mM KCl was applied again. After the tissue reached the steady state and the base line was obtained, a test compound was applied by the cumulative method (half-logarithmic incremence). The contact time at each concentration was 30 minutes. The activity of the compound was expressed as the maximum relaxation rate (%) of the tension induced by the agonist.

The next experiment concerns bladder. Briefly: Test Example 4: micturition contraction interval in rats under partial restraint, oral. The format is in vivo, rat (male SD strain). As to conditions: Rattus norvegicus, 1 mg/kg oral, pre-administration = 100. The text has this:
As a control compound, cromakalim was used.

The term IC50 denotes the point on the concentration scale where inhibition reaches its midpoint. Read a high IC50 as lower potency. For the compound `Cc1ccc(NC(=O)C(C)(O)C(F)(F)F)c2c1OCc1ccccc1C2=O` (stereo not drawn) [Compound 22], the IC50 in the experiment with detrusor muscle [1] is more than 10 µM; with detrusor muscle [2] it was 4.2 µM.
On to `CC(O)(C(=O)Nc1cccc2ccc3ccoc3c(=O)c12)C(F)(F)F` (stereo not drawn) [Compound 67, 9-(3,3,3-Trifluoro-2-hydroxy-2-methylpropanoylamino)-10H-benzo[5,6]cyclohepta[1,2-b]furan-10-one], for which the IC50 in the experiment on detrusor muscle [1] amounted to 3.8 µM; with detrusor muscle [2], 6.9 µM.
The like results for `CC(O)(C(=O)Nc1ccc2c(c1)SCc1occc1C2=O)C(F)(F)F` (stereo not drawn) [Compound 43, 7-(3,3,3-Trifluoro-2-hydroxy-2-methylpropanoylamino)-4,10-dihydrofuro[2,3-c][1]benzothiepin-4-one] were, in that order, 2.1 µM and 3.5 µM.
For `CC(O)(C(=O)Nc1ccc2c(c1)SCc1ccsc1C2=O)C(F)(F)F` (stereo not drawn) [Compound 45, 7-(3,3,3-Trifluoro-2-hydroxy-2-methylpropanoylamino)-4,10-dihydrothieno[3,2-c][1]benzothiepin-10-one], in that order: 2.5 µM and more than 10 µM.
For `CC(O)(C(=O)Nc1ccc2c(c1)OCc1c(F)cccc1C2=O)C(F)(F)F` (stereo not drawn) [Compound 21, 7-Fluoro-3-(3,3,3-trifluoro-2-hydroxy-2-methylpropanoylamino)-6,11-dihydrodibenz[b,e]oxepin-11-one], in that order: more than 10 µM and 4.3 µM.
`CC(O)(C(=O)Nc1ccc2ccc3ccccc3c(=O)c2c1)C(F)(F)F` (stereo not drawn) [Compound 61, 3-(3,3,3-Trifluoro-2-hydroxy-2-methylpropanoylamino)-5H-dibenzo[a,d]cyclohepten-5-one]: the values for the IC50 in the experiment on detrusor muscle [1] and in the experiment with detrusor muscle [2] were 2.3 µM and 3.2 µM, respectively.
For `CC(O)(C(=O)Nc1cccc2c1C(=O)c1ccccc1-2)C(F)(F)F` (stereo not drawn) [Compound 4, 1-(3,3,3-Trifluoro-2-hydroxy-2-methylpropanoylamino)fluoren-9-one], the IC50 with detrusor muscle [1] turned out to be 8.4 µM; with detrusor muscle [2] it was 2.6 µM.
On to `CC(O)(C(=O)Nc1cc2c(cc1Cl)-c1ccccc1C2=O)C(F)(F)F` (stereo not drawn) [Compound 11, 3-Chloro-2-(3,3,3-trifluoro-2-hydroxy-2-methyl-propanoylamino)fluoren-9-one], for which the IC50 is 2.2 µM in the experiment on detrusor muscle [1] and 2 µM in the experiment with detrusor muscle [2].
On to `COc1ccc(NC(=O)C(C)(O)C(F)(F)F)c2c1OCc1ccccc1C2=O` (stereo not drawn) [Compound 23], for which the values for the IC50 with detrusor muscle [1] and with detrusor muscle [2] were 7.8 µM and more than 10 µM, respectively.
On to `CC(O)(C(=O)Nc1cccc2ccc3ccsc3c(=O)c12)C(F)(F)F` (stereo not drawn) [Compound 63, 9-(3,3,3-Trifluoro-2-hydroxy-2-methylpropanoylamino)-10H-benzo[5,6]cyclohepta[1,2-b]thiophen-10-one], for which the figures for the IC50 in the experiment on detrusor muscle [1] and in the experiment on detrusor muscle [2] were more than 10 µM and 3.3 µM, respectively.
The like results for `CC(O)(C(=O)Nc1ccc2c(c1)OCc1sccc1C2=O)C(F)(F)F` (stereo not drawn) [Compound 18, 7-(3,3,3-Trifluoro-2-hydroxy-2-methylpropanoylamino)-4,10-dihydrothieno[2,3-c][1]benzoxepin-4-one] were, in that order, 2.1 µM and more than 10 µM.
For the compound `CC(O)(C(=O)Nc1ccc2c(c1)SCc1sccc1C2=O)C(F)(F)F` (stereo not drawn) [Compound 47, 7-(3,3,3-Trifluoro-2-hydroxy-2-methylpropanoylamino)-4,10-dihydrothieno[2,3-c][1]benzothiepin-4-one], in the experiment on detrusor muscle [1], the IC50 stood at 6.1 µM.
On the same count and under the same terms, in the case of `CC(O)(C(=O)Nc1cccc2c1C(=O)c1ccsc1C[S+]2[O-])C(F)(F)F` (stereo not drawn) [Compound 50, 9-Oxo-5-(3,3,3-trifluoro-2-hydroxy-2-methylpropanoylamino)-4,10-dihydrothieno[2,3-c][1]benzothiepin-4-one] it was 6.1 µM.
Take `CC(O)(C(=O)Nc1ccc2c(c1)C(=O)c1ccccc1CO2)C(F)(F)F` (stereo not drawn) [Compound 3, 2-(3,3,3-Trifluoro-2-hydroxy-2-methylpropanoylamino)-6,11-dihydrodibenz[b,e]oxepin-11-one]: the IC50 with detrusor muscle [1] came to 1.8 µM; in the experiment with detrusor muscle [2], 2.2 µM.
The like results for `CC(O)(C(=O)Nc1ccc2c(c1)[S+]([O-])Cc1ccccc1C2=O)C(F)(F)F` (stereo not drawn) [Compound 49, 5-Oxo-3-(3,3,3-trifluoro-2-hydroxy-2-methylpropanoylamino)-6,11-dihydrodibenzo[b,e]thiepin-11-one] were, in that order, 4.1 µM and 7.8 µM.
On to `COc1ccc(NC(=O)C(C)(O)C(F)(F)F)c2c1OCc1ccsc1C2=O` (stereo not drawn) [Compound 27, 6-Methoxy-9-(3,3,3-trifluoro-2-hydroxy-2-methylpropanoylamino)-4,10-dihydrothieno[3,2-c][1]-benzoxepin-10-one], for which the IC50 in the experiment on detrusor muscle [1] is more than 10 µM; in the experiment with detrusor muscle [2], 4.8 µM.
For the compound `CC(O)(C(=O)Nc1cc2c(cc1Br)-c1ccccc1C2=O)C(F)(F)F` (stereo not drawn) [Compound 12, 3-Bromo-2-(3,3,3-trifluoro-2-hydroxy-2-methylpropanoylamino)fluoren-9-one], the 50% inhibitory concentration (IC50) was found to be 3.2 µM with detrusor muscle [1] and 3.8 µM in the experiment on detrusor muscle [2].
Turning to `CC(O)(C(=O)Nc1ccc2c(c1)[S+]([O-])Cc1sccc1C2=O)C(F)(F)F` (stereo not drawn) [Compound 51, 9-Oxo-7-(3,3,3-trifluoro-2-hydroxy-2-methylpropanoylamino)-4,10-dihydrothieno[2,3-c][1]benzothiepin-4-one], in the experiment on detrusor muscle [1], the midpoint of inhibition, the IC50, lay at 5.7 µM.
Consider `C[C@@](O)(C(=O)Nc1cccc2c1C(=O)c1sccc1CO2)C(F)(F)F` [Compound 34, (R)-9-(3,3,3-Trifluoro-2-hydroxy-2-methylpropanoylamino)-4,10-dihydrothieno[3,2-c][1]benzoxepin-10-one], for which the IC50 stood at 2.2 µM in the experiment with detrusor muscle [1] and 1.6 µM in the experiment on detrusor muscle [2].
The like results for `Cc1cc2c(cc1NC(=O)C(C)(O)C(F)(F)F)OCc1ccccc1C2=O` (stereo not drawn) [Compound 25, 2-Methyl-3-(3,3,3-trifluoro-2-hydroxy-2-methylpropanoylamino)-6,11-dihydrodibenz[b,e]oxepin-11-one] were, in that order, more than 10 µM and 2.2 µM.
The like results for `CC(O)(C(=O)Nc1ccc2c(c1)C(=O)c1cc(Br)ccc1-2)C(F)(F)F` (stereo not drawn) [Compound 13, 7-Bromo-2-(3,3,3-trifluoro-2-hydroxy-2-methylpropanoylamino)fluoren-9-one] were, in that order, 48 µM and 3.5 µM.
The like results for `CC(O)(C(=O)Nc1ccc2c(=O)c3sccc3ccc2c1)C(F)(F)F` (stereo not drawn) [Compound 65, 7-(3,3,3-Trifluoro-2-hydroxy-2-methylpropanoylamino)-10H-benzo[5,6]cyclohepta[1,2-b]thiophen-10-one] were, in that order, 2.3 µM and 4.6 µM.
Turning to `C[C@@](O)(C(=O)Nc1cccc2c1C(=O)c1ccoc1CO2)C(F)(F)F` [Compound 36, (R)-5-(3,3,3-Trifluoro-2-hydroxy-2-methylpropanoylamino)-4,10-dihydrofuro[2,3-c][1]benzoxepin-4-one], the IC50 in the experiment with detrusor muscle [1] was 1.3 µM; in the experiment with detrusor muscle [2] it was 8.3 µM.
On to `CC1(C)Oc2ccc(C#N)cc2C(N2CCCC2=O)C1O` (stereo not drawn) [Cromakalim, cromakalim, reference compound], for which the response vs control in vivo at 1 mg/kg with bladder (1 hr) stood at 128%; in the experiment with bladder (2 hr), 133%; with bladder (3 hr), 142%; in the experiment with bladder (4 hr) it was 133%; in the experiment with bladder (5 hr) it was 133%.
